Measurements from patent US20160185774A1, “Anti-Infective Compounds” (priority 2013, published 2016).
In brackets after ≈: the same amount, converted by molar mass.

Tested on: M. tuberculosis
Assay: microbe, parasite or virus in culture
Type: cell-based
Conditions: Mycobacterium tuberculosis, 120 h; read-out: QUM (MIC80)

Structure (SMILES): CCc1nc2cc(Cl)ccn2c1C(=O)NCc1ccc(C(=O)CN2CCOCC2)cc1 [Compound 304]
- MIC80: 1 to 20 µM (≈ 0.441 to 8.82 µg/mL)

Structure (SMILES): CCc1nc2c(C(F)(F)F)cccn2c1C(=O)NCc1ccc(N2CCN(c3ccc(C(F)(F)F)cc3)CC2)cc1 [Compound 217]
- MIC80: 1 to 20 µM (≈ 0.576 to 11.5 µg/mL)

Structure (SMILES): CCc1nc2cc(Br)ccn2c1C(=O)NCc1ccc(N2CCC(c3ccc(OC(F)(F)F)cc3)CC2)cc1 [Compound 191]
- MIC80: < 1 µM

Structure (SMILES): CCc1nc2cc(Br)ccn2c1C(=O)NCc1ccc(N2CCC(c3ccc(C(F)(F)F)cc3)CC2)cc1 [Compound 132]
- MIC80: < 1 µM

Structure (SMILES): CCc1nc2cc(Cl)ccn2c1C(=O)NCc1ccc(C(=O)Nc2ccc(F)cc2)cc1 [Compound 302]
- MIC80: < 1 µM

Structure (SMILES): CCc1nc2ccc(Cl)cn2c1C(=O)NCc1csc(-c2ccc(OC(F)(F)F)cc2)n1 [Compound 280]
- MIC80: < 1 µM

Structure (SMILES): CCc1nc2cc(OC)ccn2c1C(=O)NCc1ccc(N2CCN(c3ccc(Cl)cc3)CC2)cc1 [Compound 220]
- MIC80: < 1 µM

Structure (SMILES): CCc1nc2cc(C)ccn2c1C(=O)NCc1ccc(N2CCC(c3ccc(OC)cc3)CC2)cc1 [Compound 155]
- MIC80: < 1 µM

Structure (SMILES): CCc1nc2ccc(Cl)cn2c1C(=O)NCc1ccc(N2CCC(C(=O)Cc3ccc(F)cc3)CC2)cc1 [Compound 242]
- MIC80: < 1 µM

Structure (SMILES): CCc1nc2c(Cl)cccn2c1C(=O)NCc1ccc(N2CCN(c3ccc(C)cc3)CC2)cc1 [Compound 160]
- MIC80: < 1 µM

Structure (SMILES): CCc1nc2ccc(F)cn2c1C(=O)NCc1ccc(N2CCN(c3ccc(Cl)cc3)CC2)cc1 [Compound 77]
- MIC80: < 1 µM

Structure (SMILES): CCc1nc2ccc(F)cn2c1C(=O)NCc1ccc(N2CCN(c3ccccc3)CC2)cc1 [Compound 71]
- MIC80: < 1 µM

Structure (SMILES): CCc1nc2ccc(Br)cn2c1C(=O)NCc1ccc(N2CCC(c3ccccc3)CC2)cc1 [Compound 1]
- MIC80: < 1 µM

Structure (SMILES): CCc1nc2ccc(Cl)cn2c1C(=O)NCc1ccc(C(=O)Nc2ccc(F)cc2)cc1 [Compound 301]
- MIC80: < 1 µM

Structure (SMILES): CCc1nc2ccc(F)cn2c1C(=O)NCc1ccc(N2CCN(c3ccc(OC)cc3)CC2)cc1 [Compound 149]
- MIC80: < 1 µM

Structure (SMILES): CCc1nc2ccc(Cl)cn2c1C(=O)NCc1ccc(N2CCN(C(=O)Cc3ccc(F)cc3)CC2)cc1 [Compound 236]
- MIC80: < 1 µM

Structure (SMILES): CCc1nc2ccc(OC)cn2c1C(=O)NCc1ccc(N2CCC(c3ccc(F)cc3)CC2)cc1 [Compound 179]
- MIC80: < 1 µM

Structure (SMILES): CCc1nc2ccc(C)cn2c1C(=O)NCc1ccc(N2CCC(c3ccc(C(F)(F)F)cc3)CC2)cc1 [Compound 140]
- MIC80: < 1 µM

Structure (SMILES): CCc1nc2cc(Cl)ccn2c1C(=O)NCc1ccc(NC23CC4CC(CC(C4)C2)C3)cc1 [Compound 322]
- MIC80: < 1 µM

Structure (SMILES): CCc1nc2c(C(F)(F)F)cccn2c1C(=O)NCc1ccc(N2CCC(c3ccc(F)cc3)CC2)cc1 [Compound 78]
- MIC80: 1 to 20 µM (≈ 0.525 to 10.5 µg/mL)

Structure (SMILES): CCc1nc2cc(Br)ccn2c1C(=O)NCc1ccc(N2CCN(c3ccc(OC(F)(F)F)cc3)CC2)cc1 [Compound 192]
- MIC80: < 1 µM

Structure (SMILES): CCc1nc2ccc(F)cn2c1C(=O)NCc1ccc(N2CCC(c3ccc(OC)cc3)CC2)cc1 [Compound 150]
- MIC80: < 1 µM

Structure (SMILES): CCc1nc2ccc(Cl)cn2c1C(=O)NCc1ccc(N2CCN(c3ccc(C)cc3)CC2)cc1 [Compound 36]
- MIC80: < 1 µM

Structure (SMILES): CCc1nc2ccc(Cl)cn2c1C(=O)NCc1ccc(C(=O)N(C)Cc2ccc(F)cc2)cc1 [Compound 317]
- MIC80: 1 to 20 µM (≈ 0.479 to 9.58 µg/mL)

Structure (SMILES): Cc1nc2cc(Cl)ccn2c1C(=O)NCc1ccc(N2CCC(c3ccc(C(F)(F)F)cc3)CC2)cc1 [Compound 298]
- MIC80: < 1 µM

Structure (SMILES): CCc1nc2c(C(F)(F)F)cccn2c1C(=O)NCc1ccc(N2CCN(c3ccc(OC(F)(F)F)cc3)CC2)cc1 [Compound 202]
- MIC80: 1 to 20 µM (≈ 0.592 to 11.8 µg/mL)

Structure (SMILES): CCc1nc2c(Cl)cccn2c1C(=O)NCc1ccc(N2CCC(c3ccc(C(F)(F)F)cc3)CC2)cc1 [Compound 119]
- MIC80: < 1 µM

Structure (SMILES): CCc1nc2cc(C(F)(F)F)ccn2c1C(=O)NCc1ccc(N2CCN(c3ccc(Cl)cc3)CC2)cc1 [Compound 211]
- MIC80: < 1 µM

Structure (SMILES): CCc1nc2ccc(C)cn2c1C(=O)NCc1ccc(N2CCN(c3ccc(C(F)(F)F)cc3)CC2)cc1 [Compound 60]
- MIC80: < 1 µM

Structure (SMILES): CCc1nc2ccc(F)cn2c1C(=O)NCc1ccc(N2CCC(c3ccc(C(F)(F)F)cc3)CC2)cc1 [Compound 11]
- MIC80: < 1 µM

Structure (SMILES): CCc1nc2c(Cl)cccn2c1C(=O)NCc1ccc(N2CCC(c3ccc(C)cc3)CC2)cc1 [Compound 147]
- MIC80: < 1 µM

Structure (SMILES): Cc1ccc(C2CCN(c3ccc(CNC(=O)c4c(C)nc5ccc(Cl)cn45)cc3)CC2)cc1 [Compound 326]
- MIC80: < 1 µM

Structure (SMILES): CCc1nc2cc(Cl)ccn2c1C(=O)NCc1ccc(N2CC[C@@H](Oc3ccc(Cl)cc3)C2)cc1 [Compound 341]
- MIC80: < 1 µM

Structure (SMILES): CCc1nc2c(Br)cccn2c1C(=O)NCc1ccc(N2CCC(c3ccc(C(F)(F)F)cc3)CC2)cc1 [Compound 143]
- MIC80: 1 to 20 µM (≈ 0.585 to 11.7 µg/mL)

Structure (SMILES): CCc1nc2cc(F)ccn2c1C(=O)NCc1ccc(N2CCN(c3ccccc3)CC2)cc1 [Compound 69]
- MIC80: < 1 µM

Structure (SMILES): CCc1nc2cc(F)ccn2c1C(=O)NCc1ccc(N2CCC(c3ccc(C(F)(F)F)cc3)CC2)cc1 [Compound 164]
- MIC80: < 1 µM

Structure (SMILES): CCc1nc2cc(C(F)(F)F)ccn2c1C(=O)NCc1ccc(N2CCC(c3ccc(Cl)cc3)CC2)cc1 [Compound 186]
- MIC80: < 1 µM

Structure (SMILES): Cc1nc2ccc(Cl)cn2c1C(=O)NCc1ccc(N2CCC(c3ccc(F)cc3)CC2)cc1 [Compound 325]
- MIC80: < 1 µM

Structure (SMILES): CCc1nc2cc(C)ccn2c1C(=O)NCc1ccc(N2CCC(c3ccc(F)cc3)CC2)cc1 [Compound 163]
- MIC80: < 1 µM

Structure (SMILES): CCc1nc2ccc(C(F)(F)F)cn2c1C(=O)NCc1ccc(N2CCN(c3ccc(C)cc3)CC2)cc1 [Compound 102]
- MIC80: < 1 µM

Structure (SMILES): CCc1nc2ccc(C)cn2c1C(=O)NCc1ccc(N2CCC(c3ccc(Cl)cc3)CC2)cc1 [Compound 122]
- MIC80: < 1 µM

Structure (SMILES): CCc1nc2ccc(Cl)cn2c1C(=O)NCc1ccc(N2CCC(C(=O)c3ccc(F)cc3)CC2)cc1 [Compound 240]
- MIC80: < 1 µM

Structure (SMILES): Cc1nc2c(F)cccn2c1C(=O)NCc1ccc(N2CCC(c3ccc(C(F)(F)F)cc3)CC2)cc1 [Compound 310]
- MIC80: < 1 µM

Structure (SMILES): CCc1nc2cc(OC)ccn2c1C(=O)NCc1ccc(N2CCC(c3ccc(C(F)(F)F)cc3)CC2)cc1 [Compound 195]
- MIC80: < 1 µM

Structure (SMILES): CCc1nc2c(C)cccn2c1C(=O)NCc1ccc(N2CCC(c3ccc(C(F)(F)F)cc3)CC2)cc1 [Compound 145]
- MIC80: < 1 µM

Structure (SMILES): Cc1nc2ccc(Cl)cn2c1C(=O)NCc1ccc(N2CCC(c3ccc(C(F)(F)F)cc3)CC2)cc1 [Compound 327]
- MIC80: < 1 µM

Structure (SMILES): CCc1nc2c(Br)cccn2c1C(=O)NCc1ccc(N2CCC(c3ccc(OC(F)(F)F)cc3)CC2)cc1 [Compound 185]
- MIC80: 1 to 20 µM (≈ 0.601 to 12 µg/mL)

Structure (SMILES): CCc1nc2cc(Cl)ccn2c1C(=O)NCc1ccc(N2CC[C@H](Oc3ccc(Cl)cc3)C2)cc1 [Compound 343]
- MIC80: < 1 µM

Structure (SMILES): CCc1nc2ccc(Cl)cn2c1C(=O)NCc1ccc(N2CCC(O)(c3ccccc3)CC2)cc1 [Compound 239]
- MIC80: < 1 µM

Structure (SMILES): CCc1nc2c(OC)cccn2c1C(=O)NCc1ccc(N2CCN(c3ccc(Cl)cc3)CC2)cc1 [Compound 103]
- MIC80: 1 to 20 µM (≈ 0.504 to 10.1 µg/mL)

Structure (SMILES): CCc1nc2ccc(F)cn2c1C(=O)NCc1ccc(N2CCN(c3ccc(C(F)(F)F)cc3)CC2)cc1 [Compound 76]
- MIC80: < 1 µM

Structure (SMILES): CCc1nc2cc(F)ccn2c1C(=O)NCc1ccc(N2CCN(c3ccc(OC)cc3)CC2)cc1 [Compound 74]
- MIC80: < 1 µM

Structure (SMILES): CCc1nc2cc(OC)ccn2c1C(=O)NCc1ccc(N2CCC(c3ccc(OC)cc3)CC2)cc1 [Compound 92]
- MIC80: < 1 µM

Structure (SMILES): Cc1nc2cc(F)ccn2c1C(=O)NCc1ccc(N2CCC(c3ccc(C(F)(F)F)cc3)CC2)cc1 [Compound 349]
- MIC80: < 1 µM

Structure (SMILES): CCc1nc2ccc(Cl)cn2c1C(=O)NCc1ccc(N2CCC(NC(=O)Cc3ccc(F)cc3)CC2)cc1 [Compound 232]
- MIC80: > 20 µM

Structure (SMILES): CCc1nc2c(C(F)(F)F)cccn2c1C(=O)NCc1ccc(N2CCN(c3ccc(OC)cc3)CC2)cc1 [Compound 105]
- MIC80: 1 to 20 µM (≈ 0.538 to 10.8 µg/mL)

Structure (SMILES): CCc1nc2c(C(F)(F)F)cccn2c1C(=O)NCc1ccc(N2CCC(c3ccccc3)CC2)cc1 [Compound 112]
- MIC80: 1 to 20 µM (≈ 0.507 to 10.1 µg/mL)

Structure (SMILES): CCc1nc2c(F)cccn2c1C(=O)NCc1ccc(N2CCN(c3ccc(OC)cc3)CC2)cc1 [Compound 32]
- MIC80: < 1 µM

Structure (SMILES): CCc1nc2ccc(F)cn2c1C(=O)NCc1ccc(N2CCN(c3ccc(C)cc3)CC2)cc1 [Compound 75]
- MIC80: < 1 µM

Structure (SMILES): CCc1nc2cc(OC)ccn2c1C(=O)NCc1ccc(N2CCN(c3ccc(C)cc3)CC2)cc1 [Compound 108]
- MIC80: < 1 µM

Structure (SMILES): CCc1nc2c(OC)cccn2c1C(=O)NCc1ccc(N2CCC(c3ccc(OC(F)(F)F)cc3)CC2)cc1 [Compound 117]
- MIC80: 1 to 20 µM (≈ 0.553 to 11.1 µg/mL)

Structure (SMILES): CCc1nc2ccc(C(F)(F)F)cn2c1C(=O)NCc1ccc(N2CCC(c3ccc(C(F)(F)F)cc3)CC2)cc1 [Compound 146]
- MIC80: < 1 µM

Structure (SMILES): CCc1nc2cc(Cl)ccn2c1C(=O)NCc1ccc(OCC23CC4CC(CC(C4)C2)C3)cc1 [Compound 320]
- MIC80: < 1 µM

Structure (SMILES): Cc1ccc(C2CCN(c3ccc(CNC(=O)c4c(C)nc5ccc(F)cn45)cc3)CC2)cc1 [Compound 314]
- MIC80: < 1 µM

Structure (SMILES): CCc1nc2cc(Cl)ccn2c1C(=O)NCc1cccc(C(=O)N(C)Cc2ccc(F)cc2)c1 [Compound 330]
- MIC80: 1 to 20 µM (≈ 0.479 to 9.58 µg/mL)

Structure (SMILES): CCc1nc2cc(Cl)ccn2c1C(=O)NCc1ccc(N2CCC(C(=O)OCCN3CCOCC3)CC2)cc1 [Compound 337]
- MIC80: < 1 µM

Structure (SMILES): CCc1nc2c(C)cccn2c1C(=O)NCc1ccc(N2CCN(c3ccc(C(F)(F)F)cc3)CC2)cc1 [Compound 40]
- MIC80: < 1 µM

Structure (SMILES): CCc1nc2ccc(Cl)cn2c1C(=O)NCc1ccc(/C=C/c2ccc(F)cc2)cc1 [Compound 246]
- MIC80: < 1 µM

Structure (SMILES): CCc1nc2ccc(C)cn2c1C(=O)NCc1ccc(N2CCC(c3ccc(OC)cc3)CC2)cc1 [Compound 222]
- MIC80: < 1 µM

Structure (SMILES): CCc1nc2cc(Cl)ccn2c1C(=O)NCc1ccc(N2CCC(c3ccc(C)cc3)CC2)cc1 [Compound 221]
- MIC80: < 1 µM

Structure (SMILES): CCc1nc2cc(Br)ccn2c1C(=O)NCc1ccc(N2CCN(c3ccc(OC)cc3)CC2)cc1 [Compound 208]
- MIC80: < 1 µM

Structure (SMILES): CCc1nc2c(Cl)cccn2c1C(=O)NCc1ccc(N2CCC(c3ccc(F)cc3)CC2)cc1 [Compound 183]
- MIC80: < 1 µM

Structure (SMILES): CCc1nc2ccc(Cl)cn2c1C(=O)NCc1ccc(N2CCN(c3ccc(C(F)(F)F)cc3)CC2)cc1 [Compound 48]
- MIC80: < 1 µM

Structure (SMILES): CCc1nc2ccc(Cl)cn2c1C(=O)NCc1ccc(N2CCC(c3ccc(OC)cc3)CC2)cc1 [Compound 16]
- MIC80: < 1 µM
